Calls of active or inactive are those of the source.
How the values were obtained:
[1] = target: Peroxisome proliferator-activated receptor gamma/Nuclear receptor coactivator 3 (Homo sapiens, UniProt P37231); assay: (§1) TR-FRET dose response biochemical High Throughput Screening assay for agonists of the steroid receptor coactivator 3 (SRC-3) recruitment by the peroxisome proliferator-activated receptor gamma (PPAR gamma): non-selective agonists. [Related pubchem assays: 1301 (Confirmation screen.), 1048 (Primary screen.)]; assay type: functional
[2] = target: Peroxisome proliferator-activated receptor gamma/Nuclear receptor coactivator 1 (Homo sapiens, UniProt P37231); assay: as §1, with “1 (SRC-1)” for “3 (SRC-3)”, “assays (depositor defined):AID1300, AID1808, AID504735, AID631]” for “assays: 1301 (Confirmation screen.), 1048 (Primary screen.)]”; assay type: protein assay
Peroxisome proliferator-activated receptor gamma/Nuclear receptor coactivator 1, sequence (P37231 whole entry): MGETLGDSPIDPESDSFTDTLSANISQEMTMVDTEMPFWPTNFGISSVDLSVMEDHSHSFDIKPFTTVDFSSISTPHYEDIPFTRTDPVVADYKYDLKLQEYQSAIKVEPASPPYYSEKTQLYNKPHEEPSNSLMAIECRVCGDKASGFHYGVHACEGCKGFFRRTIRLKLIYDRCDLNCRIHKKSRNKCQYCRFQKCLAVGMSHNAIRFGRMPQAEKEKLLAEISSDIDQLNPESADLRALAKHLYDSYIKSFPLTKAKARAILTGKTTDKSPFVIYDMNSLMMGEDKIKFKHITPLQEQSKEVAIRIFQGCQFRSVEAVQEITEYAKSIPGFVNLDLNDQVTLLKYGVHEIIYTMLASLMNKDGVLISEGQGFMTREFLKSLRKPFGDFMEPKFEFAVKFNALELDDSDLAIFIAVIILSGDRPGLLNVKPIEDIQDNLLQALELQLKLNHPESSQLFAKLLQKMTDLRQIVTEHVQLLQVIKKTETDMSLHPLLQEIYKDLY
Peroxisome proliferator-activated receptor gamma/Nuclear receptor coactivator 1, sequence (Q15788 whole entry, further chain): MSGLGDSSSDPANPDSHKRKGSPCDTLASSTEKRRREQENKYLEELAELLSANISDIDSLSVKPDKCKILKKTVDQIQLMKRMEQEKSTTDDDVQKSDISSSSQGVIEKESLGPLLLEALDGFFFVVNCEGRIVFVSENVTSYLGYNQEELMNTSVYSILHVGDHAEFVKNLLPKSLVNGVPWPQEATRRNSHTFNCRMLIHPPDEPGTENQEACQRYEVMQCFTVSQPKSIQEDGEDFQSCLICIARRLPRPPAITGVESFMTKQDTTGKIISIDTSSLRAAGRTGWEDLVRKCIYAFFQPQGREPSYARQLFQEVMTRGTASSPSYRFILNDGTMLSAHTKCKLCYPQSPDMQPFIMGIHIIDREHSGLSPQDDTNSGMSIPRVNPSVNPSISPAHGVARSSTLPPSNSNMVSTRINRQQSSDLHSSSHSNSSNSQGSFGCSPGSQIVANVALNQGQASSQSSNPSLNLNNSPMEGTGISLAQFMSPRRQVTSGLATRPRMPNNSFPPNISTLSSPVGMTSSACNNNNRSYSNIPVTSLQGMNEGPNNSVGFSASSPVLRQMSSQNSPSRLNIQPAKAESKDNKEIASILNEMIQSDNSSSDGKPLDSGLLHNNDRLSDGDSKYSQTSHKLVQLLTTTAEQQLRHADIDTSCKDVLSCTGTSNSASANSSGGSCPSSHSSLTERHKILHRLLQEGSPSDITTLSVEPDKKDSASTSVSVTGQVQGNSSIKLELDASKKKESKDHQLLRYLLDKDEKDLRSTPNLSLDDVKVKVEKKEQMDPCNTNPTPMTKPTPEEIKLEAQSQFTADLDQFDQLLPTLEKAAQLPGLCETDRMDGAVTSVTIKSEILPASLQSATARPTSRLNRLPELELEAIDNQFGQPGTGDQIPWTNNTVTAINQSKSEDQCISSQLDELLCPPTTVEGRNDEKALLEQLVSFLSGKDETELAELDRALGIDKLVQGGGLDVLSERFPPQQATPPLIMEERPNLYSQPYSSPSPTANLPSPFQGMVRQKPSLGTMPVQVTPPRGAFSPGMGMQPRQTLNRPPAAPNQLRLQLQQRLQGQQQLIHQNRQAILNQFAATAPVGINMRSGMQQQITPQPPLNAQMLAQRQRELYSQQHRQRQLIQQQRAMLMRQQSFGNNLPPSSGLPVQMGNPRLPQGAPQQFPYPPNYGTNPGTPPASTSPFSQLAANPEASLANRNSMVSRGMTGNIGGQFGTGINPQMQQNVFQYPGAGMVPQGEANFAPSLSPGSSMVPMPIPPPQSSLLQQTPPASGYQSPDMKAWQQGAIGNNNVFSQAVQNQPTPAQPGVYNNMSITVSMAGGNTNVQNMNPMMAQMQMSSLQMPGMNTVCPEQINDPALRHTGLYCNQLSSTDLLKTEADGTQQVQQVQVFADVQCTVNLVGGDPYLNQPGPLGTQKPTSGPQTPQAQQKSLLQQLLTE

[3] = target: Peroxisome proliferator-activated receptor gamma/Nuclear receptor coactivator 2 (Homo sapiens, UniProt P37231); assay: TR-FRET dose response biochemical High Throughput Screening assay for agonists of the steroid receptor coactivator 2 (SRC-2) recruitment by the peroxisome proliferator-activated receptor gamma (PPAR gamma): non-selective agonists. [Related pubchem assays: 1297, 1032 ]; assay type: functional
Peroxisome proliferator-activated receptor gamma/Nuclear receptor coactivator 2, sequence (P37231 whole entry): as the sequence (P37231 whole entry) above
Peroxisome proliferator-activated receptor gamma/Nuclear receptor coactivator 2, sequence (Q15596 whole entry, further chain): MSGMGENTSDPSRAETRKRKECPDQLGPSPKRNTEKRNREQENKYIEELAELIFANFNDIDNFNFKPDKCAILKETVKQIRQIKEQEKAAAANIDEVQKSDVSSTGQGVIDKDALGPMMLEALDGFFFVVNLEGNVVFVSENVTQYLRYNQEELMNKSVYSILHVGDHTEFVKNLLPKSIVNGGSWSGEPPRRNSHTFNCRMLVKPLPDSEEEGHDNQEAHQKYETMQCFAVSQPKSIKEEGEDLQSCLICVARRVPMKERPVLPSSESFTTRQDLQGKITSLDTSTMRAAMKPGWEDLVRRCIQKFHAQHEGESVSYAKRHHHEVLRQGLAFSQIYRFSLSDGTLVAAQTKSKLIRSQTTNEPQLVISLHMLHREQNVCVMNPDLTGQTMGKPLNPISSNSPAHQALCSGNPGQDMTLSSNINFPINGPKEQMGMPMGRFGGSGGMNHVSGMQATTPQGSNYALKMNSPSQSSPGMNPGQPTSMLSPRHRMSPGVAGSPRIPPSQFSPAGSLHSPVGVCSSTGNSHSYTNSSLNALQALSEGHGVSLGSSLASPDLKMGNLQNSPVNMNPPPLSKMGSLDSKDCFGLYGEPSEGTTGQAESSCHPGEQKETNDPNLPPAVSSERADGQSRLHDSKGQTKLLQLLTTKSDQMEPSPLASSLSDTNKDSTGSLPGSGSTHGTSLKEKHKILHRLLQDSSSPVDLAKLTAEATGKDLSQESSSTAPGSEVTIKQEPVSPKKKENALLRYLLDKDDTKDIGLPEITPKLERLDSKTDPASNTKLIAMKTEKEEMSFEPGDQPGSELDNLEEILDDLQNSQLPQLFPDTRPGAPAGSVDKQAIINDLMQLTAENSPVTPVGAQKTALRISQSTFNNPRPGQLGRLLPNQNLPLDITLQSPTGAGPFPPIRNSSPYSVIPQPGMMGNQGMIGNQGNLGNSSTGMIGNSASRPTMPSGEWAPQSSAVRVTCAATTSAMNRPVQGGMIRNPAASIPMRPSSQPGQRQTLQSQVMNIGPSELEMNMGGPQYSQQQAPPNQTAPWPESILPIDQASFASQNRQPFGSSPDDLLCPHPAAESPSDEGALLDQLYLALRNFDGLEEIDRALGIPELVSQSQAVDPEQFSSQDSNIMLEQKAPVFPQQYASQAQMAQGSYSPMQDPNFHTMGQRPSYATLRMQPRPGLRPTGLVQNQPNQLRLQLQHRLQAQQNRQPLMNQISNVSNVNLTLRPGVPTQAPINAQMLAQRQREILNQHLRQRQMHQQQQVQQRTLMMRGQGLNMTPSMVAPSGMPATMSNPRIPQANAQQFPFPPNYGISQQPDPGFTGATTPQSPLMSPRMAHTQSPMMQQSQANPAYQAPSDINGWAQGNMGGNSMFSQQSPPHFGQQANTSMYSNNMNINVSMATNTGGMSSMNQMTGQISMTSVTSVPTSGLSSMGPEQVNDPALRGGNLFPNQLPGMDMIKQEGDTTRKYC

HEK293 [4] = assay: cells; conditions: Homo sapiens
HEK293 [5] = assay: cells; conditions: Homo sapiens; remark: listed apart in the source
Protein RecA = target: T1, Protein RecA (Mycobacterium tuberculosis, UniProt P9WHJ3); assay: Fluorescence Cell-Free Homogeneous Dose Retest to Identify Inhibitors of RecA-Intein Splicing Activity. [Related pubchem assays (depositor defined):AID2097, AID2223, AID489010, AID492950]; assay type: functional
T1 sequence (P9WHJ3 whole entry): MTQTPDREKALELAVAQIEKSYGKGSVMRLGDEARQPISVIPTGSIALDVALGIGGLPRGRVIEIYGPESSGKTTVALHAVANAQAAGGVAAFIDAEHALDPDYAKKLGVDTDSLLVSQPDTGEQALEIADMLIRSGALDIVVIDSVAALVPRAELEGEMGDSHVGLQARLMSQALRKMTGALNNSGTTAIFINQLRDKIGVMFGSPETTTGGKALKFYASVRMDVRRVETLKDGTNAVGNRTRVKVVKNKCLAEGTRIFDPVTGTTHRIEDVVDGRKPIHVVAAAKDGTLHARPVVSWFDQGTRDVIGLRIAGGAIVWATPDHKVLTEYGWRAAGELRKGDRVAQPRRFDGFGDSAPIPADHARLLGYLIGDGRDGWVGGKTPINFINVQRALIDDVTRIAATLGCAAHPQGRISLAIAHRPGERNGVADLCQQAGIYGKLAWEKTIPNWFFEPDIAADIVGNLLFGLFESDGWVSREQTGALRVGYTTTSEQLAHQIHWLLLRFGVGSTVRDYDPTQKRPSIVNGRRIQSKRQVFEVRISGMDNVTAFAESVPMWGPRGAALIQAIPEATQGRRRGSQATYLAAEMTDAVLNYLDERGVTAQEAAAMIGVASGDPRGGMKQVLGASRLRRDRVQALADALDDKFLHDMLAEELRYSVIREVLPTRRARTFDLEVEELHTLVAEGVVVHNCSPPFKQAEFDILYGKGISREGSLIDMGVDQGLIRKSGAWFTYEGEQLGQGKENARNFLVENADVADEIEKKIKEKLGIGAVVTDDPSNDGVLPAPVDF

[6] = non-specific 3'UTR reporter inhibition in Clone20-Shn3RL – cell-based, Renilla luciferase, cherry-picked, counter-screen for Shn3 inhibitor project, dose response (AID 624133); assay type: functional
[7] = target: T2, Replicative DNA helicase DnaB (Mycobacterium tuberculosis, UniProt P9WMR3); assay: DnaB intein splicing inhibitors, dose response, biochemical, cell-free fluorescence (AID 449749); assay type: functional
T2 sequence (P9WMR3 whole entry): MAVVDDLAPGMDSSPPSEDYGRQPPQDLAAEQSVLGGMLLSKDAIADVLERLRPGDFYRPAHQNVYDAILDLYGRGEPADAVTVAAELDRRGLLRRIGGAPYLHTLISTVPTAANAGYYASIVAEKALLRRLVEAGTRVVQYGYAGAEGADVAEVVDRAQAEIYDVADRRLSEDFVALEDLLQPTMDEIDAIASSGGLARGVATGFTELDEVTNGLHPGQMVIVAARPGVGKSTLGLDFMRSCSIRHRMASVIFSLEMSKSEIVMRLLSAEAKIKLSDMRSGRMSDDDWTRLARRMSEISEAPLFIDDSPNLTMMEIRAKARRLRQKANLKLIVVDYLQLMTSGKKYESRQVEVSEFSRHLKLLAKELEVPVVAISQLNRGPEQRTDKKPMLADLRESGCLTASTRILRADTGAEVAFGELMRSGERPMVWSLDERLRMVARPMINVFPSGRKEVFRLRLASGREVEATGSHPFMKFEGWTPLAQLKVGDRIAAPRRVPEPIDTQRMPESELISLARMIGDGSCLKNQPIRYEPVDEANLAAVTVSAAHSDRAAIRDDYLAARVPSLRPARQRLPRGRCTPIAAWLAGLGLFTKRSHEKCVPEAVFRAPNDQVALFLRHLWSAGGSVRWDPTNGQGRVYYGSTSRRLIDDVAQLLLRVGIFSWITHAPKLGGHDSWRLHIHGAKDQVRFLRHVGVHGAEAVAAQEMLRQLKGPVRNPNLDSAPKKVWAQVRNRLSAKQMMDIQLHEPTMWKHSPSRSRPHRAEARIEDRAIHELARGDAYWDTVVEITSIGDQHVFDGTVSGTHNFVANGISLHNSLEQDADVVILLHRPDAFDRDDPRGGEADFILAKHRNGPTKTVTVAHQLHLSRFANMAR

[8] = loss of viability in HepG2 cells – cell-based, CellTiter-Glo, cherry-picked, cytotoxicity control for Shn3 inhibitor project, dose response (AID 624134); assay type: functional
[9] = reduction of Shn3 3'UTR-driven luciferase in osteoblasts – cell-based, Clone20 osteoblasts, firefly luciferase, cherry-picked, dose response (AID 624132); assay type: functional;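 note: firefly luciferase luminescence from reporter carrying the Shn3 3'UTR in osteoblasts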
[10] = target: T3, Heat shock factor protein 1 (Mus musculus, UniProt P38532); assay: decrease of HSF1-responsive luciferase luminescence – cell-based, NIH3T3, dose retest, confirmation (AID 2382); assay type: functional;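 note: NIH3T3 fibroblasts with HSF1-driven luciferase reporter stressed by proteasome inhibitor MG132; luminescence from HSF1-driven luciferase expression after 8 hours of MG132 stress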
T3 sequence (P38532 whole entry): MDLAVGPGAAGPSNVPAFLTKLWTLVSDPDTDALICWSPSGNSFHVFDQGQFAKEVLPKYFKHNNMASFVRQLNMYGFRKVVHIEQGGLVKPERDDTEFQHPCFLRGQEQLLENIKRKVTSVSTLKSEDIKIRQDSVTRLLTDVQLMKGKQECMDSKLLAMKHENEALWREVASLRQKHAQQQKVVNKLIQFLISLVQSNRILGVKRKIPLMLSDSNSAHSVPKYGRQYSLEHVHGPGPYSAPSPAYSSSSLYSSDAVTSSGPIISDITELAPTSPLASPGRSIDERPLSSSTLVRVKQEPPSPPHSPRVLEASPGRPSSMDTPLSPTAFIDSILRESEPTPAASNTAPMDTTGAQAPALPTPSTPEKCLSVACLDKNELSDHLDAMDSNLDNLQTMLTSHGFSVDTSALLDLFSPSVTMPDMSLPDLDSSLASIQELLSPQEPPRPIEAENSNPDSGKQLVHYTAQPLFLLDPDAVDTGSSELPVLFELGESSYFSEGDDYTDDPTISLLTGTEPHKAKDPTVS

[11] = viability loss of HMLE_sh_eGFP cells – cell-based, luminescence, counter-screen for HMLE_sh_ECad selective toxicity project, dose response (AID 463074); assay type: functional, Homo sapiens;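 note: HMLE human mammary epithelial cells expressing control shRNA against eGFP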
[12] = Luminescence Cell-Based Dose Retest to Confirm Inhibitors of Cancer Stem Cells. [Related pubchem assays (depositor defined):AID2717, AID2721]; assay type: functional; conditions: Homo sapiens
[13] = target: Glucose-6-phosphate 1-dehydrogenase (Homo sapiens, UniProt P11413); assay: inhibition of Homo sapiens G6PD, dose series – biochemical, fluorescence, selectivity assay for P. falciparum G6PD inhibitor project, dose response (AID 504792); assay type: functional
Glucose-6-phosphate 1-dehydrogenase, sequence (P11413 whole entry): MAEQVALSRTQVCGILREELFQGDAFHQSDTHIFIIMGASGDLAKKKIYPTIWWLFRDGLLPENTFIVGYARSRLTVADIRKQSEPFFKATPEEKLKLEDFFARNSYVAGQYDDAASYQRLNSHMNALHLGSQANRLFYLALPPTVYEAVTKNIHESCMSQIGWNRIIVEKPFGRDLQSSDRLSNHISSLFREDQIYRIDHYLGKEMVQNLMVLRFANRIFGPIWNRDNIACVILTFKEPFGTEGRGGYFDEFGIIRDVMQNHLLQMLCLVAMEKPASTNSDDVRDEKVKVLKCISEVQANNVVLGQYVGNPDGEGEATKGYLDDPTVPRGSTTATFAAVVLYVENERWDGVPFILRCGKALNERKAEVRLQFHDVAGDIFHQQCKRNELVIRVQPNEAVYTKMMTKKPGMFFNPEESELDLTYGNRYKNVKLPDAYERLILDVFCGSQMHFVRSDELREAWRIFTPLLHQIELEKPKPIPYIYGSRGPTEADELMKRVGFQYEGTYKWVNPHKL

[14] = target: FAD-linked sulfhydryl oxidase ALR (Homo sapiens, UniProt P55789); assay: ALR-catalysed DTT oxidation blockers – biochemical, H2O2 detection, luminescence, cherry-pick, dose response (AID 493248)
FAD-linked sulfhydryl oxidase ALR, sequence (P55789 whole entry): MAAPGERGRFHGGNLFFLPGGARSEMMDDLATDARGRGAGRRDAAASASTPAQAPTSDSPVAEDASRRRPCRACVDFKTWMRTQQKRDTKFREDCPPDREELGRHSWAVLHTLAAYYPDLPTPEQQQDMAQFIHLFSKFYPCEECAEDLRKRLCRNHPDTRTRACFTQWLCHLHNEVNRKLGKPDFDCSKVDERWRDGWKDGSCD

Compound: Sc1nnc(-c2cc(-c3ccco3)[nH]n2)n1-c1ccccc1
- EC50 [1]: > 79.4 µM (not active)
- EC50 [2]: > 79.4 µM (inactive)
- EC50 [3]: > 79.4 µM (not active)

Compound: CCSc1cnn(-c2ccccc2)c(=O)c1SCC
- EC50 [1]: > 79.4 µM (not active)
- EC50 [2]: 54.2 µM (inactive)
- EC50 [3]: 7.53 µM (active)

Compound: O=C(NCc1ccccc1)c1nc(S(=O)(=O)Cc2ccccc2)ncc1Cl
- EC50 (HEK293 [4]): > 2.21 µM (active)
- EC50 (HEK293 [5]): > 59.6 µM (inactive)
- EC50 (Protein RecA): 4.88 µM (active)
- AC50 [6]: 10.8 µM (active)
- AC50 [7]: 2.72 µM (active)
- AC50 [8]: 20.4 µM (active)
- AC50 [9]: 1.19 µM (active)

Compound: CC(C)(C)c1ccc(Cn2nnc3c(O)nc(C4CCN(C(=O)Cc5cccs5)CC4)nc32)cc1
- EC50 (HEK293 [4]): > 59.7 µM (inactive)
- EC50 (HEK293 [5]): > 59.7 µM (inactive)

Compound: c1ccc2c(Nc3nc(-c4ccncc4)nc4ccccc34)cccc2c1
- EC50 [10]: > 195 µM (not active)
- AC50 [11]: 34 µM (active)
- AC50 [12]: 18.7 µM (active)

Compound: COC(=O)c1sccc1NS(=O)(=O)c1ccc(OC)cc1
- AC50 [11]: 28.2 µM (active)
- AC50 [12]: 21.4 µM (active)

Compound: COCCNC(=S)Nc1ccc(N2CCOCC2)c(S(=O)(=O)Nc2ccc(Cl)cc2)c1
- IC50 [13]: > 80 µM (inactive)

Compound: NC(=O)C1=CC2C3C=CC2(O)C(=O)OC3O1 (stereo not given)
- EC50 (HEK293 [4]): > 59.7 µM (inactive)
- EC50 (HEK293 [5]): > 59.7 µM (inactive)

Compound: COc1cc(/N=C/c2c(CO)cnc(C)c2O)cc(OC)c1OC
- IC50 [13]: > 80 µM (inactive)
- AC50 [14]: 3.63 µM (active)

— ChEMBL document CHEMBL1201862, “PubChem BioAssay data set” (2004)
